Laboratory results reported in patent US11357778B2, “Antagonist of the fibroblast growth factor receptor 3 (FGFR3) for use in the treatment or the prevention of skeletal disorders linked with abnormal activation of FGFR3” (INSTITUT NATIONAL DE LA SANTE ET DE LE RECHERCHE MEDICALE …, priority 2011, dated 2022).

Key:
[1] = test system: Fgfr3^Y367C/+ growth plate; assay: Histology of cultured femur growth plate (HES staining, type X collagen in situ hybridization); assay type: cell-based, mouse
Description: Limb explants were fixed after culture in 4% paraformaldehyde at 4° C., and placed in a staining solution for 45-60 minutes (0.05% Alizarin Red, 0.015% Alcian Blue, 5% acetic acid in 70% ethanol) or embedded in paraffin. Serial […] were stained with Hematoxylin-Eosin using standard protocols for histological analysis or were subjected to in situ hybridization or immunohistochemical staining. In situ hybridization using [S35]-UTP labeled antisense ribopropes for collagen X was carried out as previously described (Delezoide et al., Hum Mol Genet, 6, 1899-1906, 1997). Sections were counterstained with Hematoxylin. For immunohistochemistry, sections were stained with antibodies specific to FGFR3 (1:250 dilution; Sigma), anti PCNA (1:1000 dilution; Abcam), anti-KI67 (1:300; Abcam), anti-cyclin D1 (1:80 dilution; Santa Cruz) and anti-p57 (1:100 dilution; Santa Cruz) using the Dako Envision kit. Images were captured with an Olympus PD70-IX2-UCB microscope. […] The inventors evaluated the impact of A31 on the growth plate (FIG. 4A). […] Histological examinations using HES staining (FIG. 10A) and type X collagen labeling (FIG. 10B) were also carried out.

Fgfr3^Y367C/+ femurs = assay: Ex vivo culture of E16.5 embryonic femur explants, bone length; assay type: cell-based, mouse; settings: for gain in femur length: Fgfr3^Y367C/+ femurs
Description: Six sets of ex vivo experiments were performed. Femur embryos at day E16.5 from WT (n=6) and Fgfr3^Y367C/+ (n=6) mice were used and incubated for 5 days in DMEM medium with antibiotics and 0.2% BSA (Sigma) supplemented with A31 or PD173074 (as control) at a concentration of 2 mM. Right femur was cultured in supplemented medium and compared with the left one cultured in control medium. Rib cage from E16.5 WT and Fgfr3^Y367C/+ mice embryos were isolated and stripped of all soft tissues. Primary chondrocytes were obtained from rib cages. The ribs were incubated in a pronase solution (Roche; 2 mg/ml) followed by a digestion in Collagenase A (Roche; 3 mg/ml) at 37° C. Isolated chondrocytes were plated out at a density of 2.105 cells in 6-well plates containing DMEM supplemented with 10% FCS and antibiotics, and were allowed to reach subconfluency. Cultures were supplemented with A31 or PD173074 (as control) at a concentration of 2 mM. Cells were treated with A31 (2 mM) PD173074 (as control) in serum-free DMEM supplemented with 0.2% BSA and harvested after 24 h. To establish the effect of the inhibitors, the right femur was cultured in supplemented medium and compared with the left one cultured in control medium The bone length was measured at the beginning (before treatment) and at the end of time course. Each experiment was repeated at least three times. The genotype of WT, Fgfr3^Y367C/+ and Fgfr3^−/− mice were determined by PCR of tail DNA as previously described (Pannier et al., Biochim Biophys Acta, 1792: 140-147, 2009). All experimental procedures and protocols were approved by the Animal Care and Use Committee.
Fgfr3^Y367C/+ mice display reduced length of long bones, broad femurs, a narrow trunk, short ribs and a slightly dome-shaped skull, closely resembling achondroplasia (FIGS. 3A and B). The inventors analyzed the effects of A31 on endochondral ossification in Fgfr3^Y367C/+ mice by using an ex vivo culture system for embryonic day 16.5 (E16.5) limb explants. […] After 5 days of culture, the increase in length of the treated mutant femurs was 2.6 times more than for that of WT.
Thus, embryonic femur explants were co-incubated with 150 nM of PD173074 for 5 days.
Embryonic femur explants were co-incubated 100 nM (10^−7M) or 1 μM (10^−6M) of BGJ-398 for 6 days.

[2] = test system: FGFR3Y373C, FGFR3K650E, FGFR3K650M, FGFR3G380R; assay: Constitutive FGFR3 phosphorylation in HEK-293 cells transiently expressing activated FGFR3; assay type: cell-based, human; settings: 10 μM, data not shown
Fgfr3^Y367C/+ mice = assay: Dwarfism mouse model, X-rays analysis of skeleton and body growth; assay type: in vivo; settings: 10 days
Description: The effectiveness of PD173074 and BGJ-398 in attenuating the dwarfism phenotype of Fgfr3^Y367C/+ mice was assessed in viva. The mice were seven days of age at treatment initiation and received daily subcutaneous administration of 4.00 mg/kg PD173074 or of 1.66 mg/kg BGJ-398 for 10 days.
The effectiveness of PD173074 in attenuating the dwarfism phenotype of Fgfr3^Y367C/+ mice was assessed in vivo. The mice were seven days of age at treatment initiation and received daily subcutaneous administrations of 4.00 mg/kg of PD173074 for 10 days.
Seven days old mice received daily subcutaneous administrations of 1.66 mg/kg of BGJ-398 for 10 days.

Compound	chondrocyte morphology (HES staining) ([1]; BGJ-398 10^−6M)	size of the hypertrophic zone of the femur explants ([1]; BGJ-398, Fgfr3^Y367C/+ femur explants)	type X collagen expression (in situ hybridization) ([1]; BGJ-398, Fgfr3^Y367C/+ growth plate)	femur size over concentration (in words) (Fgfr3^Y367C/+ femurs; BGJ-398 100 nM to 1 μM, 6 days)	gain in femur length (Fgfr3^Y367C/+ femurs; BGJ-398 100 nM, 6 days)	constitutive FGFR3 receptor phosphorylation [2]	dwarfism phenotype (X-rays) (Fgfr3^Y367C/+ mice; BGJ-398 1.66 mg/kg daily subcutaneous, from 7 days of age)	gain in femur length (Fgfr3^Y367C/+ femurs; PD173074 150 nM, 5 days)	body size (Fgfr3^Y367C/+ mice; PD173074 4.00 mg/kg daily subcutaneous)	dwarfism phenotype (X-rays, clinical features) (Fgfr3^Y367C/+ mice; PD173074 4.00 mg/kg daily subcutaneous, from 7 days of age)
CCN1CCN(c2ccc(Nc3cc(N(C)C(=O)Nc4c(Cl)c(OC)cc(OC)c4Cl)ncn3)cc2)CC1 [BGJ-398, reference compound]	larger and more spherical	increases	enhanced type X collagen expression	concentration-dependent increase	71.86%	abolished receptor phosphorylation	Dramatic phenotypic changes			
CCN(CC)CCCCNc1ncc2cc(-c3cc(OC)cc(OC)c3)c(NC(=O)NC(C)(C)C)nc2n1 [PD173074]								77%	overall increase in body size	Amelioration in key relevant achondroplasia clinical features
